Reference: patent US9260461B2, “Water-soluble derivatives and prodrugs of acacetin and methods of making and using thereof” (Versitech Limited, priority 2014, dated 2016)
Where two headings read alike, the source gives them in different places.

How the values were obtained:
[1] = Solubility of the purified prodrugs versus parent compound acacetin; assay type: physicochemical
From the text: Prodrug B: Light yellow solid. Yield 54%. C16H11O7PNa2 (408.21). EI-MS: m/z 387.04 [M+H—Na]^+. ^1H NMR (400 MHz, DMSO-d6): δ=12.90 (s, 1H), 8.04 (d, J=8.8 Hz, 2H), 7.10 (d, J=8.8 Hz, 2H), 7.02 (s, 1H), 6.98 (s, 1H), 6.60 (s, 1H), 3.89 (s, 3H) ppm.

isolated rat hearts = experiment: Ischemia-reperfusion model in isolated rat hearts (Langendorff): coronary flow rate and contractile function; design: species or system SD rats; settings: for coronary flow rate versus control: n=10-12
Procedure: Male SD rats (250-300 g) were anesthetized with phenobarbital (30 mg/kg, i.p.), and the heart were isolated and mounted to a Langendorff heart perfusion apparatus via the aorta and perfused with Krebs-Henseleit solution at 37° C. gassed with 95% O2 and 5% CO2. A saline-filled latex balloon connected by a polyethylene catheter to a pressure transducer was inserted into the left ventricle via an incision on the left atrium to measure left ventricular (LV) pressure. The balloon volume was adjusted and kept at a diastolic pressure of 0-5 mm Hg following insertion. ECG was recorded with two electrodes placed at the apex and the aorta. Signals were continuously monitored and stored on an IBM compatible PC computer using a multiple channels data acquisition system (Chengdu Instrument Ltd, Chendu, China).
A silk suture was placed around the left anterior descending artery (LAD) 2 mm distal to the left atrial appendage. A short length of polyethylene tube was placed over the suture on LAD as an occluder and the suture was pulled and the tube to ligate the coronary artery to induce regional ischemia. After a 20-min stabilization period, the hearts were treated by vehicle (DMSO control) or 0.3, 1, or 3 μM of the parent compound acacetin (0.3, 1, or 3 μM) for 10 min, and the LAD was ligated for 30-min. The ligation was released to allow for reperfusion for 2 h. Myocardial ischemia was confirmed by a decrease in left ventricular developed pressure and specific ST-T elevation on the ECG. At completing the reperfusion, the hearts were used to perform histological and/or molecular/biochemical analysis.
Hearts were excluded from the study if one of the following criteria was observed: (1) left ventricular developed pressure (LVP) was below 80 mmHg during baseline stabilization; (2) aortic wall was damaged during cannulation leading to a leakage during perfusion; or (3) hearts suffered from sustained irreversible arrhythmia during stabilization.
To determine the mechanisms of cardioprotection, the ischemia-reperfusion model was established in isolated rat hearts using accurate concentrations of the parent compound acacetin. The hearts perfused with the Langendorff system were exposed to 30 min ischemia (coronary ligation) followed by 120 min reperfusion (FIG. 5). After a 20 min stabilization period, the heart was treated with 0.3, 1, 3 μM acacetin, or equivolume vehicle (DMSO) for 10 min and then 30 min during ischemia.

myocyte apoptosis = experiment: TUNEL staining of myocardial slices; design: species or system rat; settings: 3 μM; vehicle 51.1±3.8%; n=5, P<0.01 vs. vehicle
Procedure: To observe the histological changes of the ischemia-reperfusion hearts, the left ventricle was sectioned into 2-3 mm slices and drop-fixed in 10% formalin solution. After adequate fixation (a minimum 48 hours in room temperature), tissue slices were transferred into 70% ethanol for long term storage at 4° C. Tissue paraffin infiltration is processed in the tissue processor (Leica, Asp200s).
When the program was complete, tissue slices with cut side down were transferred into a mold with paraffin to form a block. The tissue block was placed on a microtome (Leica, RM2125/RT, Germany) and cut into ˜5 μm slices. The tissue slices were float on the surface of 37° C. water bath until flat and then collected onto clean glass slides. […]
Terminal deoxynucleotidyl transferase-mediated dUTP nick end labeling (TUNEL) staining of myocardial slices was performed to detect apoptosis in myocardium using the TUNEL Apoptosis detection kit (Genscript, Cat. No L00297, Piscataway, N.J., USA) according to the manufacturer's instructions. […] For quantitative analysis, TUNEL-positive cells in 10 different sectors with approximately 100-200 cells/sector were counted with high-power magnification, Axioskop 2 plus with software Axioversion (Axiovs 20v.4.8.2.0). Apoptotic cells were expressed as percentage of total cells in the field.

[2] = background statement; cited from earlier work

solubility ([1]; aqueous buffer, comparison with Tris solution pH=7.0, read-out: solubility (parent compound, compared with Prodrug A in Tris solution)): < 0.2 µg/mL | solubility ([1]; water, H2O, read-out: solubility (parent compound, compared with Prodrug B in H2O)): < 0.1 µg/mL
SMILES: COc1ccc(-c2cc(=O)c3c(O)cc(O)cc3o2)cc1 [acacetin]
coronary flow rate versus control (isolated rat hearts; 0.3 μM, before ischemia): 108.9±2.3% | coronary flow rate versus control (isolated rat hearts; 1 μM, before ischemia): 122.1±4.9% | increase of heart contractile function (left ventricular systolic pressure and +dP/dT) (isolated rat hearts; 3 μM, before ischemia, n=10, P<0.01): around 10 % of control | coronary flow rate versus control (isolated rat hearts; 3 μM, before ischemia): 125.8±6.6% | improvement of reduced coronary flow rate, difference vs. vehicle (isolated rat hearts; 3 μM, during ischemia and reperfusion, P<0.01 vs. vehicle): 16-25% | prevention of decrease of heart contractile function induced by ischemia-reperfusion, difference vs. vehicle (isolated rat hearts; 3 μM, P<0.01 vs. vehicle): 15-20% | TUNEL-positive nuclei (percentage cell number) (myocyte apoptosis): 20.2±4.1% | water solubility [2]: water-insoluble
